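Growth conditions: 96-well plates. Treatment: test compound, 48 hours, 5 concentrations. Analysis: linear interpolation between bracketing concentrations; unreached endpoints set to highest concentration. GI50 marks 50% less growth. At the TGI there is no net growth.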
Assays:
Assay in all cases: inhibition of tumour cell growth, NCI panel, 48 h
NCI-H23 lung = test system: NCI-H23 lung
SF-539 CNS = test system: SF-539 CNS
U251 CNS = test system: U251 CNS
SW-620 colon = test system: SW-620 colon
LOX IMVI melanoma = test system: LOX IMVI melanoma
UACC-257 melanoma = test system: UACC-257 melanoma
SNB-19 CNS = test system: SNB-19 CNS
HT29 colon = test system: HT29 colon
SF-295 CNS = test system: SF-295 CNS
SK-MEL-28 melanoma = test system: SK-MEL-28 melanoma

SMILES: O=C(O)CCC(c1ccccc1)(c1ccccc1)c1ccccc1
- TGI (NCI-H23 lung): > 100 µM
- TGI (SF-539 CNS): > 100 µM
- TGI (U251 CNS): > 100 µM
- TGI (SW-620 colon): > 100 µM
- TGI (LOX IMVI melanoma): > 100 µM
- TGI (UACC-257 melanoma): > 100 µM
- TGI (SNB-19 CNS): > 100 µM
- TGI (HT29 colon): > 100 µM
- TGI (SF-295 CNS): > 100 µM
- TGI (SK-MEL-28 melanoma): > 100 µM

SMILES: COc1ccc(Oc2nc3cc(N)cc(N)c3nc2-c2ccccc2)cc1
- GI50 (NCI-H23 lung): 25.2 µM
- TGI (NCI-H23 lung): > 100 µM
- GI50 (SF-539 CNS): 23.3 µM
- TGI (SF-539 CNS): 61.1 µM
- GI50 (U251 CNS): 26.6 µM
- TGI (U251 CNS): > 100 µM
- GI50 (SW-620 colon): 88.2 µM
- TGI (SW-620 colon): > 100 µM
- GI50 (LOX IMVI melanoma): 34.7 µM
- TGI (LOX IMVI melanoma): > 100 µM
- GI50 (UACC-257 melanoma): > 100000 nM
- TGI (UACC-257 melanoma): > 100 µM
- GI50 (SNB-19 CNS): 65 µM
- TGI (SNB-19 CNS): > 100 µM
- GI50 (HT29 colon): 39.9 µM
- TGI (HT29 colon): > 100 µM
- GI50 (SF-295 CNS): 23400 nM
- TGI (SF-295 CNS): 52.4 µM
- GI50 (SK-MEL-28 melanoma): 19600 nM
- TGI (SK-MEL-28 melanoma): 49 µM

SMILES: C=CCCCCCCCCCP(=O)(c1ccccc1)c1ccc2c(c1)OCCOCCOCCOCCO2 (configuration not stated)
- TGI (NCI-H23 lung): 29.7 µM
- TGI (SF-539 CNS): 31.9 µM
- TGI (U251 CNS): 29.3 µM
- TGI (SW-620 colon): 29.9 µM
- TGI (LOX IMVI melanoma): 29 µM
- TGI (UACC-257 melanoma): 30.6 µM
- TGI (SNB-19 CNS): 25.7 µM
- TGI (HT29 colon): 24.8 µM
- TGI (SF-295 CNS): 28.5 µM
- TGI (SK-MEL-28 melanoma): 30.1 µM

SMILES: COc1cccc2c1C(=O)c1c(O)c3c(c(O)c1C2=O)C[C@@](O)(/C(CO)=N/NC(=O)CCCCCN1C(=O)C=CC1=O)C[C@@H]3O[C@H]1C[C@H](N)[C@H](O)[C@H](C)O1
- GI50 (NCI-H23 lung): 0.927 µM
- TGI (NCI-H23 lung): 5.98 µM
- GI50 (SF-539 CNS): 0.734 µM
- TGI (SF-539 CNS): 7.82 µM
- GI50 (U251 CNS): 0.325 µM
- TGI (U251 CNS): 15.8 µM
- GI50 (SW-620 colon): 0.357 µM
- TGI (SW-620 colon): > 49 µM
- GI50 (LOX IMVI melanoma): 0.301 µM
- TGI (LOX IMVI melanoma): 3.95 µM
- GI50 (UACC-257 melanoma): 1060 nM
- TGI (UACC-257 melanoma): 4.32 µM
- GI50 (SNB-19 CNS): 0.465 µM
- TGI (SNB-19 CNS): 11.4 µM
- GI50 (HT29 colon): 1.37 µM
- TGI (HT29 colon): 13.2 µM
- GI50 (SF-295 CNS): 404 nM
- TGI (SF-295 CNS): 5.56 µM
- GI50 (SK-MEL-28 melanoma): 1610 nM
- TGI (SK-MEL-28 melanoma): 5.67 µM

SMILES: C[P+]1(Cc2ccccc2)CCCC1
- TGI (NCI-H23 lung): > 100 µM
- TGI (SF-539 CNS): > 100 µM
- TGI (U251 CNS): > 100 µM
- TGI (SW-620 colon): > 100 µM
- TGI (LOX IMVI melanoma): > 100 µM
- TGI (UACC-257 melanoma): > 100 µM
- TGI (SNB-19 CNS): > 100 µM
- TGI (HT29 colon): > 100 µM
- TGI (SF-295 CNS): > 100 µM
- TGI (SK-MEL-28 melanoma): > 100 µM

SMILES: C[C@@H](Nc1cc(F)cc(F)c1)c1cc(C(=O)N(C)C)cc2c(=O)cc(N3CCOCC3)oc12
- GI50 (NCI-H23 lung): > 87 µM
- TGI (NCI-H23 lung): > 100 µM
- GI50 (SF-539 CNS): 3.58 µM
- TGI (SF-539 CNS): 50.3 µM
- GI50 (U251 CNS): 8.58 µM
- TGI (U251 CNS): > 100 µM
- GI50 (SW-620 colon): 25.1 µM
- TGI (SW-620 colon): > 100 µM
- GI50 (LOX IMVI melanoma): 8.72 µM
- TGI (LOX IMVI melanoma): > 100 µM
- GI50 (UACC-257 melanoma): 2600 nM
- TGI (UACC-257 melanoma): > 100 µM
- GI50 (SNB-19 CNS): 10.7 µM
- TGI (SNB-19 CNS): > 100 µM
- GI50 (HT29 colon): 4.04 µM
- TGI (HT29 colon): > 100 µM
- GI50 (SF-295 CNS): 1230 nM
- TGI (SF-295 CNS): 59.9 µM
- GI50 (SK-MEL-28 melanoma): 2500 nM
- TGI (SK-MEL-28 melanoma): > 100 µM

SMILES: c1ccc(C2=NOC3C4CCC(C4)C23)cc1 (configuration not stated)
- TGI (NCI-H23 lung): > 100 µM
- TGI (SF-539 CNS): > 100 µM
- TGI (U251 CNS): > 100 µM
- TGI (SW-620 colon): > 100 µM
- TGI (UACC-257 melanoma): > 100 µM
- TGI (SNB-19 CNS): > 100 µM
- TGI (HT29 colon): > 100 µM
- TGI (SF-295 CNS): > 100 µM
- TGI (SK-MEL-28 melanoma): > 100 µM

SMILES: CC(=Nc1ccc(N(C)C)cc1)c1ccccc1
- TGI (NCI-H23 lung): > 100 µM
- TGI (SF-539 CNS): > 100 µM
- TGI (U251 CNS): > 100 µM
- TGI (SW-620 colon): 39.7 µM
- TGI (SNB-19 CNS): > 100 µM
- TGI (HT29 colon): 73.4 µM
- TGI (SF-295 CNS): > 100 µM
- TGI (SK-MEL-28 melanoma): > 100 µM

— PubChem BioAssay (NCI)
